Laboratory results reported in ChEMBL document CHEMBL3046568, “Synthesis, antimicrobial and DNA cleavage studies of some 4-aryloxymethylcoumarins obtained by reaction of 4-bromomethylcoumarins with bidentate nucleophiles” (2012).
Converted amounts (≈) assume the structure as drawn. The source made the active and inactive calls. The calls are words filed in the database; no cut-off is given here.

What was measured:
[1] = tested on: Mucor fuscus; assay: Antifungal activity against Mucor fuscus after 3 to 4 days by serial dilution method; format: functional; details: for MIC: Mucor fuscus
[2] = tested on: Aspergillus fumigatus; assay: Antifungal activity against Aspergillus fumigatus after 3 to 4 days by serial dilution method; format: functional; details: for MIC: Aspergillus fumigatus
[3] = tested on: Escherichia coli; assay: Induction of Escherichia coli MTCC 1089 DNA cleavage at 50 ug after 2 hr by agarose gel electrophoresis
[4] = tested on: Aspergillus niger; assay: Induction of Aspergillus niger DNA cleavage at 50 ug after 2 hr by agarose gel electrophoresis
[5] = tested on: Staphylococcus aureus; assay: Induction of Staphylococcus aureus MTCC 3160 DNA cleavage at 50 ug after 2 hr by agarose gel electrophoresis
[6] = tested on: Klebsiella pneumoniae; assay: Antibacterial activity against Klebsiella pneumoniae MTCC 3384 after 24 hr by disk diffusion method; format: functional; details: for MIC: Klebsiella pneumoniae, MTCC 3384, 24 h
[7] = tested on: Enterococcus faecalis; assay: Antibacterial activity against Enterococcus faecalis MTCC 3382 after 24 hr by disk diffusion method; format: functional; details: for MIC: Enterococcus faecalis, MTCC 3382, 24 h
[8] = tested on: Penicillium chrysogenum; assay: Antifungal activity against Penicillium chrysogenum after 3 to 4 days by serial dilution method; format: functional; details: for MIC: Penicillium chrysogenum
[9] = tested on: Aspergillus niger; assay: Antifungal activity against Aspergillus niger after 3 to 4 days by serial dilution method; format: functional; details: for MIC: Aspergillus niger
[10] = tested on: Staphylococcus aureus; assay: Antibacterial activity against Staphylococcus aureus MTCC 3160 after 24 hr by disk diffusion method; format: functional; details: for MIC: Staphylococcus aureus, MTCC 3160, 24 h
[11] = tested on: Candida albicans; assay: Antifungal activity against Candida albicans after 3 to 4 days by serial dilution method; format: functional; details: for MIC: Candida albicans
[12] = tested on: Pseudomonas aeruginosa; assay: Antibacterial activity against Pseudomonas aeruginosa MTCC 1034 after 24 hr by disk diffusion method; format: functional; details: for MIC: Pseudomonas aeruginosa, MTCC 1034, 24 h
[13] = tested on: Fusarium oxysporum; assay: Antifungal activity against Fusarium oxysporum after 3 to 4 days by serial dilution method; format: functional; details: for MIC: Fusarium oxysporum
[14] = tested on: Bacillus subtilis; assay: Antibacterial activity against Bacillus subtilis MTCC 297 after 24 hr by disk diffusion method; format: functional; details: for MIC: Bacillus subtilis, MTCC 297, 24 h
[15] = tested on: Escherichia coli; assay: Antibacterial activity against Escherichia coli MTCC 1089 after 24 hr by disk diffusion method; format: functional; details: for MIC: Escherichia coli, MTCC 1089, 24 h

Row | Structure (SMILES) | inhibition zone (IZ) [1] [mm] | MIC [1] [µg/mL] | inhibition zone (IZ) [2] [mm] | MIC [2] [µg/mL] | Activity [3] | Activity [4] | Activity [5] | inhibition zone (IZ) [6] [mm] | inhibition zone (IZ) [7] [mm] | MIC [7] [µg/mL] | inhibition zone (IZ) [8] [mm] | MIC [8] [µg/mL] | inhibition zone (IZ) [9] [mm] | MIC [9] [µg/mL] | inhibition zone (IZ) [10] [mm] | MIC [10] [µg/mL] | inhibition zone (IZ) [11] [mm] | MIC [11] [µg/mL] | inhibition zone (IZ) [12] [mm] | MIC [13] [µg/mL] | also measured
1 | CCN(CC)c1cccc(OCc2cc(=O)oc3c2ccc2ccccc23)c1 | 13 | 25 (≈ 66.9 µM) | 15 | 12.5 (≈ 33.5 µM) | inactive | inactive | inactive | 16 | 14 | 12.5 (≈ 33.5 µM) | 17 | 12.5 (≈ 33.5 µM) | 17 | 12.5 (≈ 33.5 µM) | 14 | 12.5 (≈ 33.5 µM) | 14 | 12.5 (≈ 33.5 µM) | 19 | 25 (≈ 66.9 µM) | MIC [6]: 12.5 µg/mL (≈ 33.5 µM); MIC [12]: 6.25 µg/mL (≈ 16.7 µM); inhibition zone (IZ) [13]: 13 mm; inhibition zone (IZ) [14]: 11 mm; MIC [14]: 25 µg/mL (≈ 66.9 µM); inhibition zone (IZ) [15]: 13 mm; MIC [15]: 25 µg/mL (≈ 66.9 µM)
2 | CCN(CC)c1cccc(OCc2cc(=O)oc3ccc(C)cc23)c1 | 16 | 12.5 (≈ 37 µM) | 16 | 12.5 (≈ 37 µM) | inactive | inactive | inactive | 13 | 17 | 6.25 (≈ 18.5 µM) | 17 | 12.5 (≈ 37 µM) | 18 | 12.5 (≈ 37 µM) | 15 | 12.5 (≈ 37 µM) | 10 | 25 (≈ 74.1 µM) | 15 | 50 (≈ 148 µM) | MIC [12]: 25 µg/mL (≈ 74.1 µM); inhibition zone (IZ) [13]: 9 mm; inhibition zone (IZ) [14]: 14 mm; MIC [14]: 12.5 µg/mL (≈ 37 µM); inhibition zone (IZ) [15]: 10 mm; MIC [15]: 50 µg/mL (≈ 148 µM)
3 | CC(=O)Nc1cccc(OCc2cc(=O)oc3ccc4ccccc4c23)c1 | 15 | 25 (≈ 69.6 µM) | 17 | 12.5 (≈ 34.8 µM) | inactive | inactive | inactive | 15 | 10 | 25 (≈ 69.6 µM) | 18 | 12.5 (≈ 34.8 µM) | 19 | 6.25 (≈ 17.4 µM) | 13 | 12.5 (≈ 34.8 µM) | 15 | 12.5 (≈ 34.8 µM) | 18 | 25 (≈ 69.6 µM) | MIC [6]: 12.5 µg/mL (≈ 34.8 µM); MIC [12]: 12.5 µg/mL (≈ 34.8 µM); inhibition zone (IZ) [13]: 12 mm; inhibition zone (IZ) [14]: 11 mm; MIC [14]: 25 µg/mL (≈ 69.6 µM); inhibition zone (IZ) [15]: 13 mm; MIC [15]: 25 µg/mL (≈ 69.6 µM)
4 | O=c1cc(COc2cccc(OCc3cc(=O)oc4ccc(Br)cc34)c2)c2cc(Br)ccc2o1 | 18 | 12.5 (≈ 21.4 µM) | 18 | 12.5 (≈ 21.4 µM) | Active | Active | Active | 17 | 19 | 6.25 (≈ 10.7 µM) | 18 | 12.5 (≈ 21.4 µM) | 19 | 6.25 (≈ 10.7 µM) | 17 | 6.25 (≈ 10.7 µM) | 17 | 6.25 (≈ 10.7 µM) | 21 | 25 (≈ 42.8 µM) | MIC [6]: 6.25 µg/mL (≈ 10.7 µM); MIC [12]: 6.25 µg/mL (≈ 10.7 µM); inhibition zone (IZ) [13]: 13 mm; inhibition zone (IZ) [14]: 16 mm; MIC [14]: 6.25 µg/mL (≈ 10.7 µM); inhibition zone (IZ) [15]: 14 mm; MIC [15]: 12.5 µg/mL (≈ 21.4 µM)
5 | Cc1ccc2c(COc3cccc(OCc4cc(=O)oc5cc(C)ccc45)c3)cc(=O)oc2c1 | 15 | 25 (≈ 55 µM) | 17 | 12.5 (≈ 27.5 µM) | inactive | inactive | inactive | 13 | 16 | 12.5 (≈ 27.5 µM) | 15 | 25 (≈ 55 µM) | 16 | 12.5 (≈ 27.5 µM) | 12 | 25 (≈ 55 µM) | 8 | 25 (≈ 55 µM) | 14 | > 100 | MIC [6]: 12.5 µg/mL (≈ 27.5 µM); MIC [12]: 25 µg/mL (≈ 55 µM); inhibition zone (IZ) [14]: 14 mm; MIC [14]: 12.5 µg/mL (≈ 27.5 µM); MIC [15]: > 100 µg/mL
6 | OC(Cn1cncn1)(Cn1cncn1)c1ccc(F)cc1F [FLUCONAZOLE] | 22 | 6.25 (≈ 20.4 µM) | 22 | 6.25 (≈ 20.4 µM) |  |  |  |  |  |  | 23 | 6.25 (≈ 20.4 µM) | 24 | 6.25 (≈ 20.4 µM) |  |  | 20 | 6.25 (≈ 20.4 µM) |  | 12.5 (≈ 40.8 µM) | inhibition zone (IZ) [13]: 17 mm
